“Also recorded” adds a separate entry of the source.
What was measured:
FPR [1] = target: T1, FPR (Homo sapiens, UniProt P21462); test: Calcium flux (Fura-2), ETFR cells; type: cell-based; conditions: CaG 10 μg/ml
T1 construct: expressed in transfected cells; host or cells: Rat basophilic leukemia (RBL) cells, stably transfected (ETFR cells); gift of H. Ali and R. Snyderman, Duke University
T1 sequence (P21462 1-350): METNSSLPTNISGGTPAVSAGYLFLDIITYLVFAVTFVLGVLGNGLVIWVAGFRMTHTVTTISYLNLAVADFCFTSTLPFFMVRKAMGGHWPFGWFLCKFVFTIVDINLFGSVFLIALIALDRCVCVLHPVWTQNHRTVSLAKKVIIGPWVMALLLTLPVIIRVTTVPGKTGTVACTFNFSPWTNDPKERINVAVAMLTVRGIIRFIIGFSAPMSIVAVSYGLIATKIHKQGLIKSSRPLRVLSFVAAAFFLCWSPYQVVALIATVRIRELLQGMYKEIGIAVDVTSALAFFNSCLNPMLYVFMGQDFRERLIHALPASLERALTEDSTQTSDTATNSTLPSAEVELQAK
Description: (§1) Monocytes or ETFR cells (10^7 cells/ml in RPMI 1640 containing 10% FBS) were loaded with 5 μM Fura-2 at room temperature (30 min for monocytes, 60 min for ETFR cells) in the dark. The cells were washed and resuspended (0.5×10^6 cells/ml) in saline buffer (138 mM NaCl, 6 mM KCl, 1 mM CaCl2, 10 mM HEPES, 5 mM glucose, and 1% BSA, pH 7.4). Two milliliters of the cell suspension were transferred to a quartz cuvette, which was placed in a luminescence spectrometer LS55 (Perkin-Elmer, Beaconsfield, UK). Calcium mobilization was measured by recording the ratio of the fluorescence excited at 340 and 380 nm in response to stimulants.

monocytes = test: Calcium flux (Fura-2), monocytes; type: cell-based, human
Description: as §1

ERK1/2 = test: Phosphorylation of ERK1/2 in ETFR cells (Western blot); type: cell-based, rat
Description: ETFR cells were plated in Petri dishes and cultured in DMEM at 37° C. in humidified 5% CO2 atmosphere for 48 h. After further culture in serum-free DMEM overnight, the cells were treated with stimulants for indicated time periods. The reaction was stopped by adding 1 ml ice-cold PBS, and the cells were lysed in 1×SDS lysis buffer (62.5 mM Tris-HCl, 2% w/v SDS, 10% glycerol, 50 mM DTT, pH 6.8) and harvested into tubes for sonication. Proteins (50 μg for each sample) were resolved by SDS-PAGE and transferred onto nitrocellulose membranes (Bio-Rad, Hercules, Calif.). The membranes were blocked for 2 h at room temperature in 3% non-fat milk prepared in Tris-buffered saline-T (10 mM Tris-HCl, pH 7.5, 150 mM NaCl, 0.1% Tween 20) and probed with anti-p-ERK1/2, p-p38 MAPK, or p-Akt (1:1000) at room temperature for 1-2 h or at 4° C. overnight. The membranes were then washed and incubated with horseradish peroxidase-conjugated secondary antibodies diluted in Tris-buffered saline-T for 1 h at room temperature. The immune complexes on the membranes were visualized using ECL reagents. Total ERK1/2, p38 MAPK, and Akt were visualized by stripping the same membrane and probing with antibodies against total ERK1/2, p38 MAPK, and Akt.

PKCδ = PKCδ translocation in ETFR cells; type: cell-based, rat; conditions: 100 nM fMLF, 10 μg/ml CaG or PMA 500 nM, 37° C. 10 min
Description: ETFR cells were seeded on coverslips and cultured overnight in DMEM containing 1% FCS at 37° C. After further culture in FCS-free DMEM for 3 h, cells were treated with stimulants for indicated time periods at 37° C. and were then fixed in 4% paraformaldehyde for 5 min at room temperature. […] The rabbit anti-PKCα/β, δ, and ξ, antibodies (1:1000 in DPBS) were applied separately for 1 h at room temperature. After three rinses with DPBS, the cells were stained with FITC-labeled goat anti-rabbit secondary antibody (PharMingen, 1:1000 in DPBS) for 1 h at room temperature. The coverslips were mounted with an anti-fade, water-based mounting medium with Propidium Iodide (PI) (Vector Lab, Burlingamem, Calif.) and analyzed under a laser scanning confocal fluorescence microscope (Zeiss LSM510 NLO Meta, Jena, Germany).

FPR [2] = target: T1, FPR; test: Chemotaxis of HEK293 cells transfected with FPR; type: cell-based; conditions: chemotaxis index
Description: Human PBMC were isolated from leukopacks obtained through the courtesy of Transfusion Medicine Department, National Institutes of Health Clinical Center (Bethesda, Md.) by Ficoll-Hypaque density gradient centrifugation. Monocytes were purified from human PBMC by Percoll gradient to yield>90% pure preparations. […] H. Ali and R. Snyderman, Duke University (Durham, N.C.) and maintained in the presence of 0.8 mg/ml geneticin (G418, Life Technologies, Rockville, Md.) in DMEM supplemented with 10% FCS. B. Chemotaxis assay Migration of phagocytes and ETFR cells was assessed using a 48-well microchemotaxis chamber (Neuroprobe, Cabin John, Md.) as previously described (Hu et al. (2001) J Leukoc Biol 70 15512). […] After incubation at 37° C. in humidified air with 5% CO2 (60 min for neutrophils, 90 min for monocytes, 4.5 h for ETFR cells), the filter was removed and stained, and the cells migrating across the filter were counted with light microscopy. […]
The chimeric receptor was stably transfected into HEK293 cells (a human embryo kidney cell line) and the chemotactic activity of CaG on the transfected cells was measured and compared to the chemotactic activity of CaG on […] cells transfected with wild type FPR, using the assay for chemotaxis described in Example IB. […]

With “CaG: Cathepsin G, serine protease purified from neutrophil granules, purchased from Athens Research & Technology” as the substance, how does the “Ca2+ flux” value (FPR [1]) read?
The value was “weak inducer of Ca^2+ flux; also recorded: induced a measurable level of Ca flux”.

What about the “attenuation of Ca2+ response to fMLF” value (FPR [1]; 0.1 nM fMLF) of the same substance?
Its value is “attenuated cell response induced by low concentrations of fMLF; also recorded: significantly attenuated cell response to 0.1 nM fMLF”.

What about the “Ca2+ flux” value (monocytes; CaG 10 μg/ml) of the same substance?
The value was “failed to induce significant Ca^2+ flux”.

And the “attenuation of Ca2+ response to fMLF” value (monocytes; CaG 10 μg/ml, 0.1 nM fMLF)?
Its value is “attenuated cell response induced by low concentrations of fMLF; also recorded: significantly attenuated cell response to 0.1 nM fMLF”.

And the “Ca2+ mobilizing activity” value (monocytes; concentrations up to 20 μg/ml (800 nM))?
Its value is “lacked significant Ca^2+ mobilizing activity”.

And the “time to activation of ERK1/2” value (ERK1/2; ETFR cells)?
The value was 1 to 5 min.

What about the “delay to reach maximal activity (MAPK phosphorylation) as compared with fMLF” value (ERK1/2; FPR transfected cells) of the same substance?
The value was 10 to 15 min.

What about the “translocation of PKCδ” value (PKCδ) of the same substance?
Its value is “did not induce translocation of PKCδ”.

What about the “chemotactic activity on FPR-transfected HEK293 cells” value (FPR [2]) of the same substance?
Its value is “chemotacic for FPR-transfected HEK 293 cells”.
